Patent publication US20100292185A1, “BETA-LACTAMASE INHIBITORS” (priority 2009, published 2010)
Where a name gives a salt, the structure may show the parent alone. Read-outs that look alike come from different tables or passages of the source.

What was measured:
SHV-5 β-lactamase = target: T1, SHV-5 β-lactamase (Klebsiella pneumoniae, UniProt P0A3M1); test: β-lactamase enzyme inhibition assay (nitrocefin substrate), SHV-5; type: biochemical
T1 construct: expressed as native untagged proteins; made in house; host or cells: E. coli BL21(DE3)
T1 sequence (P0A3M1 22-286): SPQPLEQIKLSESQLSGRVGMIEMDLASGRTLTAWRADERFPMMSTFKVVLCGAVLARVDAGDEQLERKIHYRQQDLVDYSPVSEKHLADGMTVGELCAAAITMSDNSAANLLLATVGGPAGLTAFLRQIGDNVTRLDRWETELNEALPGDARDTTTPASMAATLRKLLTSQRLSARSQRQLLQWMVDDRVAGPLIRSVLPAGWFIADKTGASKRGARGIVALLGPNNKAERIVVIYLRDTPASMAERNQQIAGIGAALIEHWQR
How it was run: (§1)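 Read-out: kinetic A486 over 10 min after adding nitrocefin at 100 μM final. Before substrate addition, enzyme and inhibitor (100–0.005 μM, PBS pH 7.0) sat together for 10 min at 37 °C. IC50 is the concentration halving the initial hydrolysis rate versus no-inhibitor wells.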

CTX-M15 β-lactamase = target: T2, CTX-M15 β-lactamase (Escherichia coli, UniProt Q9EXV5); test: β-lactamase enzyme inhibition assay (nitrocefin substrate), CTXM-15; type: biochemical
T2 construct: expressed as native untagged proteins; made in house; host or cells: E. coli BL21(DE3)
T2 sequence (Q9EXV5 entry or part of it): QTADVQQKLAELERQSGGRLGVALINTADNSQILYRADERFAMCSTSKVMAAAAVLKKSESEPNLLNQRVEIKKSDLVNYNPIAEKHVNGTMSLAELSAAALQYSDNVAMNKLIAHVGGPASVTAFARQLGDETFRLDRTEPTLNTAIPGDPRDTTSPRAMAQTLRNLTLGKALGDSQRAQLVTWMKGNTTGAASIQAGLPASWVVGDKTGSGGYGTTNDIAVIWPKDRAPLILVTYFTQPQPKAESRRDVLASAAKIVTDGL
How it was run: as §1

[1] = tested on: E. coli expressing the Class A ESBL SHV-5; test: In vitro antibacterial assay of β-lactamase inhibition (broth microdilution MIC), E. coli SHV-5; type: cell-based
How it was run: (§2)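 MIC read by eye after 16–20 h at 37° C, with CLSI-standard inocula of strains grown 3–5 h in CAMHB containing 50 μg/mL ampicillin. Compounds tested in final 2-fold dilutions from 8 to 0.015 μg/mL together with a β-lactam antibiotic.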

[2] = tested on: K. pneumoniae expressing the Class A carbapenemase KPC-2; test: microbe, parasite or virus in culture; type: cell-based
How it was run: as §2

[3] = tested on: K. pneumoniae expressing the Class A Extended Spectrum Beta-Lactamase (ESBL) CTX-M-15; test: In vitro antibacterial assay of β-lactamase inhibition (broth microdilution MIC), K. pneumoniae CTX-M-15; type: cell-based
How it was run: as §2

[4] = tested on: E. cloacae expressing the Class C P99+; test: In vitro antibacterial assay of β-lactamase inhibition (broth microdilution MIC), E. cloacae P99+; type: cell-based
How it was run: as §2

KPC-2 β-lactamase = target: T3, KPC-2 β-lactamase (Klebsiella pneumoniae, UniProt Q9F663); test: β-lactamase enzyme inhibition assay (nitrocefin substrate), KPC-2; type: biochemical
T3 construct: expressed as native untagged proteins; made in house; host or cells: E. coli BL21(DE3)
T3 sequence (Q9F663 25-293 limits assumed): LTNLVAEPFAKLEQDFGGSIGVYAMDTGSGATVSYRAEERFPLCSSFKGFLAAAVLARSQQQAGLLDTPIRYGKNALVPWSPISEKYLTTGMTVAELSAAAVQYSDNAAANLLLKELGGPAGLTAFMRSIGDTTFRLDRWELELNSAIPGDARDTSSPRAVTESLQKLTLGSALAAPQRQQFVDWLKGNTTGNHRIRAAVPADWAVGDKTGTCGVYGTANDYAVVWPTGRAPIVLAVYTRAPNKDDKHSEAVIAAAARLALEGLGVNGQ
How it was run: as §1

[5] = target: T4, VIM-2 metallo β-lactamase (Pseudomonas aeruginosa, UniProt Q9K2N0); test: β-lactamase enzyme inhibition assay (nitrocefin substrate), VIM-2; type: biochemical; settings: nitrocefin 100 μM, 37° C., PBS pH 7.0; read-out: VIM-2 IC50
T4 construct: made in house
Protocol: Isolation of β-lactamases. For SHV-5, p99 AmpC, KPC-2 and CTX-M15 β-lactamases, E. coli BL21(DE3) bacterial cells carrying expression plasmids (expressed as native untagged proteins) for the individual β-lactamases were grown in 1 L of Superbroth (Teknova Inc. Hollister, Calif.) supplemented with 100 μg/ml kanamycin and 1×5052 (0.5% glycerol, 0.05% glucose and 0.2% α-lactose) at 35° C. for 18-20 hours. Cells were harvested by centrifugation (4,000×g, 4° C., 20 min), and resuspended in 50 ml of 10 mM HEPES pH 7.5 (1/20 of the initial volume). The cells were lysed by sonication (5 pulses of 45 seconds) at 45 W on ice. The lysates were clarified by centrifugation at 10,000×g for 40 minutes at 4° C. Samples were diluted 5-fold in 50 mM sodium acetate pH 5.0, stored overnight at 4° C., after which they were centrifuged at 10,000×g for 30 minutes to clarify, and filtered through 0.45 μm filters. The samples were loaded onto a 5 ml Capto S sepharose cation exchange column (GE Healthcare) pre-equilibrated with 50 mM sodium acetate pH 5.0. The column was washed with 5 column volumes of 50 mM sodium acetate pH 5.0 to wash out unbound protein and a linear gradient of NaCl (0 to 500 mM) was used to elute the protein (over 16 CV) from the column. Fractions were assayed for β-lactamase activity using Centa (Calbiochem, Gibbstown, N.J.) as a reporter β-lactamase substrate for activity in the isolated fractions. Active fractions were pooled, concentrated and further purified by gel filtration chromatography on a Superdex 75 prep grade gel filtration column (GE Healthcare, Piscataway, N.J.) pre-equilibrated in 50 mM Hepes pH 7.5, 150 mM NaCl. Active fractions were pooled concentrated, quantitated by BCA protein determination (Thermo Scientific, Rockford, Ill.), and frozen at −80° C. in 20% glycerol until use.
For VIM-2 metallo (β-lactamase, the procedure was identical with the following exceptions: 1) the protein was not pH adjusted to pH 5 with 50 mM sodium acetate, 2) the chromatography step was changed to a 5 ml Q sepharose anion exchange column pre-equilibrated with 50 mM Hepes pH 7.5, and 3) elution of the protein was achieved by a linear gradient of NaCl (0-600 mM). Finally, the VIM-2 purification required a second run (3rd step) on the Q sepharose anion exchange column to achieve acceptable purity (>90%).
(§3) β-lactamase Inhibition. To determine the level of inhibition of β-lactamase enzymes, compounds were diluted in PBS at pH 7.0 to yield concentrations between 100 and 0.005 μM in microtiter plates. An equal volume of diluted enzyme stock was added, and the plates were incubated at 37° C. for 10 min. Nitrocefin solution was then dispensed as substrate into each well at a final concentration of 100 μM, and the plates were immediately read with the kinetic program at 486 nm for 10 min on the SPECTRAMAX® Plus^384 (high-throughput microplate spectrophotometer; Molecular Devices Corp., Sunnyvale, Calif.). Maximum rates of metabolism were then compared to those in control wells (without inhibitors), and percentages of enzyme inhibition were calculated for each concentration of inhibitor. The concentration of inhibitor needed to reduce the initial rate of hydrolysis of substrate by 50% (IC50) was calculated as the residual activity of β-lactamase at 486 nm using the SoftMax Pro 5.0 software (Molecular Devices Corp.).
Using the methodology described above, examples of the current invention were evaluated for their ability to inhibit β-lactamase enzymes. The results of these assays are summarized in Table 2 for representative enzymes across different subtypes (note SHV-5 and CTXM-15 exemplify different subclasses of Ambler Class A Extended Spectrum Beta Lactamases, KPC-2 exemplifies Class A carbapenemases, P99 represents chromosomal Class C AmpC, VIM-2 exemplifies subclass B1 of metallo-β-lactamases, and OXA-23 represents chromosome-encoded Class D oxacillin-hydrolyzing β-lactamases), NT=not tested.

p99 AmpC β-lactamase = target: T5, p99 AmpC β-lactamase (Enterobacter cloacae, UniProt P05364); test: β-lactamase enzyme inhibition assay (nitrocefin substrate), P99 AmpC; type: biochemical
T5 construct: expressed as native untagged proteins; made in house; host or cells: E. coli BL21(DE3)
T5 sequence (P05364 21-381): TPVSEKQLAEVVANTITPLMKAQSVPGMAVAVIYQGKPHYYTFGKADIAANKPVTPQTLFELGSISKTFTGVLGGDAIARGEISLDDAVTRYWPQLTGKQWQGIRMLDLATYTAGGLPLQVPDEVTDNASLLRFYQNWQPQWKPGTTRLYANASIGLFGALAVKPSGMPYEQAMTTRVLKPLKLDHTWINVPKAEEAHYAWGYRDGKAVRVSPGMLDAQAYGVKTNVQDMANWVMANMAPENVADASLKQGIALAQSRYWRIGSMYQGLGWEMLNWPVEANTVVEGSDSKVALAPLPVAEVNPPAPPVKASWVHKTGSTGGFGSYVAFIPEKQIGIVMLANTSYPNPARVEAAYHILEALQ
How it was run: as §1

[6] = tested on: P. aeruginosa expressing the Class B metallo β-lactamase VIM-2; test: In vitro antibacterial assay of β-lactamase inhibition (broth microdilution MIC), P. aeruginosa VIM-2; type: cell-based; settings: in presence of Ceftazidime 16 μg/mL (Examples 1-56)
How it was run: as §2

OXA-23 β-lactamase = target: T6, OXA-23 β-lactamase (Acinetobacter baumannii, UniProt Q9L4P2); test: β-lactamase enzyme inhibition assay (nitrocefin substrate), OXA-23 crude extract; type: biochemical; settings: nitrocefin 100 μM, 37° C., PBS pH 7.0; read-out: OXA-23 IC50
T6 construct: crude β-lactamase extracts were prepared from 20 ml overnight cultures; endogenous in cells; host or cells: Acinetobacter baumannii cells containing OXA-23 (crude freeze-thaw extract)
T6 sequence (Q9L4P2 18-273): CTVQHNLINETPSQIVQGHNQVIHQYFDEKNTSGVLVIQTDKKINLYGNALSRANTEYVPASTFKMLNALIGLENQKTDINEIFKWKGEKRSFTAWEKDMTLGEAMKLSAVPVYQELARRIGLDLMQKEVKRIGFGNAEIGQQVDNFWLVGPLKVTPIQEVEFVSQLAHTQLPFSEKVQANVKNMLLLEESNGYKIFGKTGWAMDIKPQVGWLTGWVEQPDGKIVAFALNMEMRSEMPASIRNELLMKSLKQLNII
Protocol: For OXA-23 β-lactamase, crude β-lactamase extracts were prepared from 20 ml overnight cultures with shaking. Acenitobacter baumanni cells containing OXA-23 were further diluted 10-fold and grown to mid-log phase (OD at 600 nm, 0.5-0.8) in Mueller-Hinton II (MH-II) broth at 37° C. The cells were pelleted at 5000 g, washed and resuspended in 2 mL PBS pH 7.0. The β-lactamases were extracted by four cycles of freezing and thawing followed by centrifugation. β-lactamase activity in the extracts was measured with the chromogenic cephalosporin nitrocefin. The amount of protein in each β-lactamase preparation was determined by the bicinchoninic acid (BCA) assay.
as §3

[7] = in presence of Ceftazidime 8 μg/ml (Examples 1-56)
[8] = nitrocefin 100 μM, 37° C., PBS pH 7.0, read-out: P99 AmpC IC50
[9] = in presence of Piperacillin 16 μg/ml (Examples 57-65)

Row | SMILES | IC50 (SHV-5 β-lactamase) | IC50 (CTX-M15 β-lactamase) | MIC of example compound, E. coli SHV-5 [1, 7] | MIC of example compound, K. pneumoniae KPC-2 [2, 7] | MIC of example compound, K. pneumoniae CTX-M-15 [3, 7] | MIC of example compound, E. cloacae P99+ [4, 7] | IC50 (KPC-2 β-lactamase) | IC50 [5] | IC50 (p99 AmpC β-lactamase; [8]) | MIC of example compound, P. aeruginosa VIM-2 [6] | IC50 (OXA-23 β-lactamase) | MIC of example compound, E. coli SHV-5 [1, 9] | MIC of example compound, K. pneumoniae KPC-2 [2, 9] | MIC of example compound, K. pneumoniae CTX-M-15 [3, 9] | MIC of example compound, E. cloacae P99+ [4, 9] | IC50 (p99 AmpC β-lactamase)
1 | NCc1cccc(C(=O)N[C@@H](Cc2cccc(C(=O)O)c2O)B(O)O)c1 [Example 1, 2(R)-3-[2-(3-(Aminomethyl)benzoylamino)-2-borono-ethyl]-2-hydroxy-benzoic acid hydrochloride] | 653 nM | 3 nM | 4 µg/mL | 0.125 µg/mL | 1 µg/mL | 0.25 µg/mL | 20 nM | 152 nM | 1 nM | 8 µg/mL | 64 nM | – | – | – | – | –
2 | Cl.NCc1ccc(C(=O)N[C@@H](Cc2cccc(C(=O)O)c2O)B(O)O)cc1 [Example 2, 2(R)-3-[2-(4-(Aminomethyl)benzoylamino)-2-borono-ethyl]-2-hydroxy-benzoic acid hydrochloride] | > 1000 nM | 2 nM | 8 µg/mL | 0.015 µg/mL | 2 µg/mL | 0.25 µg/mL | 13 nM | 22 nM | 3 nM | 8 µg/mL | > 1000 nM | – | – | – | – | –
3 | O=C(N[C@@H](Cc1cccc(C(=O)O)c1O)B(O)O)c1ccc(CN2CCOCC2)cc1 [Example 3, 2(R)-3-[2-(4-(Morpholinomethyl)benzoylamino)-2-borono-ethyl]-2-hydroxy-benzoic acid formate] | 367 nM | 4 nM | 8 µg/mL | 0.12 µg/mL | 2 µg/mL | 4 µg/mL | 14 nM | 850 nM | 3 nM | >8 µg/mL | > 1000 nM | – | – | – | – | –
4 | CN(C)Cc1ccc(C(=O)N[C@@H](Cc2cccc(C(=O)O)c2O)B(O)O)cc1 [Example 4, 2(R)-3-[2-(4-(N,N-Dimethylaminomethyl)benzoylamino)-2-borono-ethyl]-2-hydroxy-benzoic acid formate salt] | 0.6 nM | 3 nM | 1 µg/mL | 0.06 µg/mL | 0.25 µg/mL | 2 µg/mL | 4 nM | > 1000 nM | 3 nM | >8 µg/mL | 99 nM | – | – | – | – | –
5 | Nc1cccc[n+]1Cc1ccc(CC(=O)N[C@@H](Cc2cccc(C(=O)O)c2O)B(O)O)cc1 [Example 40, (1R)-2-amino-(4-{[2-(3-carboxy-2-hydroxy-phenyl-borono-ethylcarbamoyl]-methyl}-benzyl)-pyridinium formate] | 20 nM | 4 nM | 0.25 µg/mL | – | 0.25 µg/mL | 2 µg/mL | 653 nM | > 1000 nM | 10 nM | >8 µg/mL | 132 nM | – | – | – | – | –
6 | N=C(N)NCc1cc(CC(=O)N[C@@H](Cc2cccc(C(=O)O)c2O)B(O)O)ccn1 [Example 64, (2R)-3-{2-[(2-Guanidinomethyl-pyridin-4-yl-acetyl)-amino]-2-borono-ethyl}-2-hydroxy-benzoic acid formate] | 3 nM | 3 nM | – | – | – | – | 17 nM | 548 nM | – | – | 177 nM | 0.125 µg/mL | 0.125 µg/mL | >16 µg/mL | 4 µg/mL | 8 nM
